Experimental data as given in ChEMBL document CHEMBL3885881, “DrugMatrix”.

Organism: Rattus norvegicus
Test: DrugMatrix - Regimen: Daily Repeat
Assay type: toxicity, organism-based, Sprague-Dawley
Design: regimen Daily Repeat, gender Male, age 6-8 weeks
Settings: in vivo, iv, vehicle 100 % SALINE; for ABSOLUTE BASOPHIL / ABSOLUTE EOSINOPHIL / ABSOLUTE LYMPHOCYTE / ABSOLUTE MONOCYTE / ABSOLUTE SEGMENTED NEUTROPHIL / BASOPHIL / EOSINOPHIL / ERYTHROCYTE COUNT / HEMATOCRIT / HEMOGLOBIN / LEUKOCYTE COUNT / LYMPHOCYTE / MEAN CORPUSCULAR HEMOGLOBIN / MEAN CORPUSCULAR HEMOGLOBIN CONCENTRATION / MEAN CORPUSCULAR VOLUME / MONOCYTE / NEUTROPHIL / NUCLEATED RED BLOOD CELLS / PLATELET COUNT: tissue Blood; for ALANINE AMINOTRANSFERASE / ALBUMIN / ALKALINE PHOSPHATASE / ASPARTATE AMINOTRANSFERASE / BLOOD UREA NITROGEN / CARBON DIOXIDE / CHLORIDE / CHOLESTEROL / CREATINE PHOSPHOKINASE / CREATININE / GLUCOSE / LACTATE DEHYDROGENASE / LIPASE / PHOSPHORUS / POTASSIUM / SODIUM / TOTAL BILIRUBIN / TOTAL PROTEIN / URIC ACID: tissue Plasma
[1] = 29 mg/kg, 120 h, dose level Low, time 5 day
[2] = 48 mg/kg, 72 h, dose level High, time 3 day
[3] = 48 mg/kg, 120 h, dose level High, time 5 day

With `C[n+]1ccccc1/C=N/O.[Cl-]` [PRALIDOXIME CHLORIDE] as the compound, how does the “ABSOLUTE BASOPHIL” value [1] read?
The value was 0 CELLS/uL.

What about the “ABSOLUTE EOSINOPHIL” value [1] of the same compound?
The value was 0 CELLS/uL.

What about the “ABSOLUTE LYMPHOCYTE” value [1] of the same compound?
Its value is 11211.67 CELLS/uL.

What about the “ABSOLUTE MONOCYTE” value [1] of the same compound?
The value was 254 CELLS/uL.

What about the “ABSOLUTE SEGMENTED NEUTROPHIL” value [1] of the same compound?
The value was 1034.33 CELLS/uL.

What about the BASOPHIL [1] of the same compound?
The BASOPHIL was 0%.

What about the EOSINOPHIL [1] of the same compound?
Its EOSINOPHIL is 0%.

What about the “ERYTHROCYTE COUNT” value [1] of the same compound?
The value was 5.41 x10E6/uL.

What about the HEMATOCRIT [1] of the same compound?
The HEMATOCRIT was 34.03%.

And the HEMOGLOBIN [1]?
Its HEMOGLOBIN is 12.57 G/DL.

What about the “LEUKOCYTE COUNT” value [1] of the same compound?
The value was 12.5 x10E3/uL.

What about the LYMPHOCYTE [1] of the same compound?
Its LYMPHOCYTE is 89.67%.

What about the “MEAN CORPUSCULAR HEMOGLOBIN” value [1] of the same compound?
The value was 23.3 pg.

And the “MEAN CORPUSCULAR HEMOGLOBIN CONCENTRATION” value [1]?
The value was 36.97 G/DL.

And the “MEAN CORPUSCULAR VOLUME” value [1]?
Its value is 63 fL.

And the MONOCYTE [1]?
The MONOCYTE was 2%.

And the NEUTROPHIL [1]?
The NEUTROPHIL was 8.33%.

And the “NUCLEATED RED BLOOD CELLS” value [1]?
Its value is 0 /100WBC.

And the “PLATELET COUNT” value [1]?
Its value is 1164.33 x10E3/uL.

And the “ALANINE AMINOTRANSFERASE” value [1]?
Its value is 69.67 u/L.

What about the ALBUMIN [1] of the same compound?
Its ALBUMIN is 3.7 G/DL.

And the “ALKALINE PHOSPHATASE” value [1]?
The value was 366.67 u/L.

What about the “ASPARTATE AMINOTRANSFERASE” value [1] of the same compound?
Its value is 95.33 u/L.

And the “BLOOD UREA NITROGEN” value [1]?
Its value is 17.67 mg/dL.

And the “CARBON DIOXIDE” value [1]?
The value was 22.67 mmol/L.

And the CHLORIDE [1]?
Its CHLORIDE is 105 MEQ/L.

What about the CHOLESTEROL [1] of the same compound?
The CHOLESTEROL was 58.67 mg/dL.

And the “CREATINE PHOSPHOKINASE” value [1]?
Its value is 283.67 u/L.

What about the CREATININE [1] of the same compound?
The CREATININE was 0.2 mg/dL.

What about the GLUCOSE [1] of the same compound?
Its GLUCOSE is 168.67 mg/dL.

And the “LACTATE DEHYDROGENASE” value [1]?
The value was 87.33 u/L.

What about the LIPASE [1] of the same compound?
The LIPASE was 9 u/L.

What about the PHOSPHORUS [1] of the same compound?
Its PHOSPHORUS is 12.73 mg/dL.

What about the POTASSIUM [1] of the same compound?
Its POTASSIUM is 7.24 MEQ/L.

What about the SODIUM [1] of the same compound?
The SODIUM was 145.2 MEQ/L.

And the “TOTAL BILIRUBIN” value [1]?
Its value is 0.1 mg/dL.

What about the “TOTAL PROTEIN” value [1] of the same compound?
Its value is 5.83 G/DL.

And the “URIC ACID” value [1]?
The value was 1.97 mg/dL.

What about the “ABSOLUTE BASOPHIL” value [2] of the same compound?
Its value is 0 CELLS/uL.

And the “ABSOLUTE EOSINOPHIL” value [2]?
The value was 0 CELLS/uL.

And the “ABSOLUTE LYMPHOCYTE” value [2]?
Its value is 13021.33 CELLS/uL.

What about the “ABSOLUTE MONOCYTE” value [2] of the same compound?
The value was 38.67 CELLS/uL.

What about the “ABSOLUTE SEGMENTED NEUTROPHIL” value [2] of the same compound?
The value was 1206.67 CELLS/uL.

And the BASOPHIL [2]?
Its BASOPHIL is 0%.

What about the EOSINOPHIL [2] of the same compound?
The EOSINOPHIL was 0%.

And the “ERYTHROCYTE COUNT” value [2]?
Its value is 5.54 x10E6/uL.

And the HEMATOCRIT [2]?
The HEMATOCRIT was 36.53%.

What about the HEMOGLOBIN [2] of the same compound?
The HEMOGLOBIN was 13.53 G/DL.

What about the “LEUKOCYTE COUNT” value [2] of the same compound?
The value was 14.27 x10E3/uL.

What about the LYMPHOCYTE [2] of the same compound?
The LYMPHOCYTE was 91.33%.

And the “MEAN CORPUSCULAR HEMOGLOBIN” value [2]?
The value was 24.57 pg.

And the “MEAN CORPUSCULAR HEMOGLOBIN CONCENTRATION” value [2]?
Its value is 37.03 G/DL.

What about the “MEAN CORPUSCULAR VOLUME” value [2] of the same compound?
Its value is 66.2 fL.

What about the MONOCYTE [2] of the same compound?
Its MONOCYTE is 0.33%.

What about the NEUTROPHIL [2] of the same compound?
Its NEUTROPHIL is 8.33%.

And the “NUCLEATED RED BLOOD CELLS” value [2]?
Its value is 0 /100WBC.

And the “PLATELET COUNT” value [2]?
The value was 1281.33 x10E3/uL.

And the “ALANINE AMINOTRANSFERASE” value [2]?
Its value is 51.67 u/L.

And the ALBUMIN [2]?
The ALBUMIN was 4.43 G/DL.

And the “ALKALINE PHOSPHATASE” value [2]?
Its value is 377.33 u/L.

What about the “ASPARTATE AMINOTRANSFERASE” value [2] of the same compound?
The value was 70.67 u/L.

And the “BLOOD UREA NITROGEN” value [2]?
The value was 14.67 mg/dL.

And the “CARBON DIOXIDE” value [2]?
Its value is 19.33 mmol/L.

What about the CHLORIDE [2] of the same compound?
The CHLORIDE was 101.33 MEQ/L.

What about the CHOLESTEROL [2] of the same compound?
Its CHOLESTEROL is 73.67 mg/dL.

And the “CREATINE PHOSPHOKINASE” value [2]?
The value was 198.33 u/L.

And the CREATININE [2]?
The CREATININE was 0.19 mg/dL.

What about the GLUCOSE [2] of the same compound?
The GLUCOSE was 169.33 mg/dL.

What about the “LACTATE DEHYDROGENASE” value [2] of the same compound?
Its value is 89.67 u/L.

What about the LIPASE [2] of the same compound?
Its LIPASE is 10 u/L.

And the PHOSPHORUS [2]?
The PHOSPHORUS was 11.87 mg/dL.

What about the POTASSIUM [2] of the same compound?
The POTASSIUM was 6 MEQ/L.

What about the SODIUM [2] of the same compound?
Its SODIUM is 146.3 MEQ/L.

And the “TOTAL BILIRUBIN” value [2]?
Its value is 0.2 mg/dL.

What about the “TOTAL PROTEIN” value [2] of the same compound?
The value was 6.03 G/DL.

And the “URIC ACID” value [2]?
Its value is 1.37 mg/dL.

And the “ABSOLUTE BASOPHIL” value [3]?
Its value is 0 CELLS/uL.

What about the “ABSOLUTE EOSINOPHIL” value [3] of the same compound?
Its value is 56 CELLS/uL.

And the “ABSOLUTE LYMPHOCYTE” value [3]?
The value was 13632 CELLS/uL.

And the “ABSOLUTE MONOCYTE” value [3]?
Its value is 1059.33 CELLS/uL.

What about the “ABSOLUTE SEGMENTED NEUTROPHIL” value [3] of the same compound?
The value was 1786 CELLS/uL.

What about the BASOPHIL [3] of the same compound?
Its BASOPHIL is 0%.

What about the EOSINOPHIL [3] of the same compound?
The EOSINOPHIL was 0.33%.

What about the “ERYTHROCYTE COUNT” value [3] of the same compound?
Its value is 5.32 x10E6/uL.

What about the HEMATOCRIT [3] of the same compound?
Its HEMATOCRIT is 32.57%.

What about the HEMOGLOBIN [3] of the same compound?
Its HEMOGLOBIN is 12.23 G/DL.

What about the “LEUKOCYTE COUNT” value [3] of the same compound?
The value was 16.53 x10E3/uL.

And the LYMPHOCYTE [3]?
The LYMPHOCYTE was 82.33%.

What about the “MEAN CORPUSCULAR HEMOGLOBIN” value [3] of the same compound?
Its value is 23 pg.

What about the “MEAN CORPUSCULAR HEMOGLOBIN CONCENTRATION” value [3] of the same compound?
Its value is 37.57 G/DL.

What about the “MEAN CORPUSCULAR VOLUME” value [3] of the same compound?
The value was 61.17 fL.

And the MONOCYTE [3]?
Its MONOCYTE is 6.33%.

What about the NEUTROPHIL [3] of the same compound?
Its NEUTROPHIL is 11%.

And the “NUCLEATED RED BLOOD CELLS” value [3]?
Its value is 0 /100WBC.

And the “PLATELET COUNT” value [3]?
The value was 992.67 x10E3/uL.

And the “ALANINE AMINOTRANSFERASE” value [3]?
The value was 69 u/L.

What about the ALBUMIN [3] of the same compound?
Its ALBUMIN is 3.57 G/DL.

What about the “ALKALINE PHOSPHATASE” value [3] of the same compound?
The value was 386.67 u/L.

What about the “ASPARTATE AMINOTRANSFERASE” value [3] of the same compound?
The value was 113.33 u/L.

And the “BLOOD UREA NITROGEN” value [3]?
The value was 16 mg/dL.

What about the “CARBON DIOXIDE” value [3] of the same compound?
Its value is 27 mmol/L.

And the CHLORIDE [3]?
The CHLORIDE was 104.33 MEQ/L.

What about the CHOLESTEROL [3] of the same compound?
Its CHOLESTEROL is 62 mg/dL.

What about the “CREATINE PHOSPHOKINASE” value [3] of the same compound?
The value was 792 u/L.

What about the CREATININE [3] of the same compound?
Its CREATININE is 0.2 mg/dL.

What about the GLUCOSE [3] of the same compound?
The GLUCOSE was 194 mg/dL.

What about the “LACTATE DEHYDROGENASE” value [3] of the same compound?
Its value is 193.33 u/L.

And the LIPASE [3]?
Its LIPASE is 11.33 u/L.

And the PHOSPHORUS [3]?
Its PHOSPHORUS is 11.63 mg/dL.

What about the POTASSIUM [3] of the same compound?
The POTASSIUM was 6.09 MEQ/L.

What about the SODIUM [3] of the same compound?
The SODIUM was 144.97 MEQ/L.

And the “TOTAL BILIRUBIN” value [3]?
The value was 0.13 mg/dL.

What about the “TOTAL PROTEIN” value [3] of the same compound?
Its value is 6.03 G/DL.

And the “URIC ACID” value [3]?
The value was 1.73 mg/dL.
